Source: patent publication US6066642A, “Dihydropyridine-, pyridine-, benzopyran-4-one- and triazoloquinazoline derivative, their preparation and their use as adenosine receptor antagonists” (priority 1998, dated 2000)

biological target: T1, A2a receptors (Rattus norvegicus, UniProt P30543); assay: radioligand binding, displacement of specific [3H]CGS 21680 binding in rat striatal membranes; conditions: Table 3; [3H]CGS 21680, rat striatal membranes; read-out: Ki rA2a
T1 construct: Displacement of specific [^3 H]; from tissue; host or cells: rat striatal membranes
T1 sequence (P30543 whole entry): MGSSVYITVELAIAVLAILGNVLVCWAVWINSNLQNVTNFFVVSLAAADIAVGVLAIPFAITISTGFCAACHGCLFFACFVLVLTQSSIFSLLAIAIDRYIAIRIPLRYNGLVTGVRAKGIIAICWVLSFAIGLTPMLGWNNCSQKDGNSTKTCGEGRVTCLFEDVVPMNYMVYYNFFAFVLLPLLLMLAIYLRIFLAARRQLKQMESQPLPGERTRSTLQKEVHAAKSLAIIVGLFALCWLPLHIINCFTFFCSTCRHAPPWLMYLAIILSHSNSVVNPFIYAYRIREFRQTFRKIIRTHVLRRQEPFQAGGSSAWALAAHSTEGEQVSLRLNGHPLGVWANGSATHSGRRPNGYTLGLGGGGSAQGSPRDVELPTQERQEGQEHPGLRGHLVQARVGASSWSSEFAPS
Experimental: ^b Displacement of specific [^3 H]
or as a percentage of specific binding displaced at 100 μM.

Row | Compound | Ki
1 | CCOc1cc(O)c2c(=O)c(OCC)c(-c3ccccc3)oc2c1 [Compound 3b, 3,7-Diethoxy-5-hydroxyflavone] | 63.8 ± 18.8 µM

same assay, conditions: Table 6; [3H]CGS 21680, rat striatal membranes; read-out: K2 (rA2a)

Row | Compound | Ki
2 | O=c1c(O)c(-c2ccc(O)c(O)c2)oc2cc(O)cc(O)c12 [Compound 37, quercetin, reference compound] | 6.99 ± 0.89 µM

same assay, conditions: Table 9; 10^-4 M; read-out: % of specific binding displaced rA2A

Row | inhibition at 100 µM | Compound
3 | 19% | COCCOC(=O)C1=C(C)NC(C)=C(C(=O)OC)C1C (racemic) [Compound 53, 3-methyl,5-(2-methoxy)ethyl 2,4,6-trimethyl-1,4(R,S)-dihydropyridine-3,5-dicarboxylate]

same assay, conditions: Table 9; [3H]CGS 21680, rat striatal membranes; read-out: Ki rA2A

Row | Ki | Compound
4 | 56.8 ± 1.9 µM | CCOC(=O)C1=C(C)NC(C)=C(C(=O)OC)C1c1ccc(O)c(OC)c1 (racemic) [Compound 72, 3-methyl-5-ethyl-2,6-dimethyl-4-(4-hydroxy,3-methoxyphenyl)-1,4(R,S)-dihydropyridine-3,5-dicarboxylate]
5 | 9.72 µM | COC(=O)C1=C(C)NC(C)=C(C(=O)OCc2ccccc2)C1C (racemic) [Compound 54, 3-methyl,5-benzyl 2,4,6-trimethyl-1,4(R,S)-dihydropyridine-3,5-dicarboxylate]
6 | 35.9 µM | CCOC(=O)C1=C(C)NC(c2ccccc2)=C(C(=O)OCC)C1C (racemic) [Compound 78, 3,5-diethyl-2,4-dimethyl-6-phenyl-1,4(R,S)-dihydropyridine-3,5-dicarboxylate]
7 | 23.1 µM | CCOC(=O)C1=C(C)NC(C)=C(C(=O)OC)C1CC(C)CCC=C(C)C (racemic) [Compound 58]
8 | 38 ± 10.6 µM | CCCCC1=C(C(=O)OCC)C(C)C(C(=O)OCC)=C(C)N1 (racemic) [Compound 77, 3,5-diethyl-2,4-dimethyl-6-butyl-1,4(R,S)-dihydropyridine-3,5-dicarboxylate]
9 | 9.56 ± 2.69 µM | CCOC(=O)C1=C(C)NC(C)=C(C(=O)OC)C1CC (racemic) [Compound 56, 3-Methyl-5-ethyl-2,6-dimethyl-4-ethyl-1,4(R,S)-dihydropyridine-3,5-dicarboxylate]
10 | 11.5 µM | CCCC1C(C(=O)OC)=C(C)NC(C)=C1C(=O)OCC (racemic) [Compound 57, 3-methyl,5-ethyl 2,6-dimethyl-4-propyl-1,4(R,S)-dihydropyridine-3,5-dicarboxylate]
11 | 7.1 µM | CCOC(=O)C1=C(C)NC(C)=C(C(=O)OCCCSc2ccccc2)C1C (stereo not shown) [Compound 55]
12 | 18.2 µM | CCOC(=O)C1=C(C)NC(C)=C(C(=O)OCC)C1c1cccc([N+](=O)[O-])c1 [Compound 62]
13 | 20.7 µM | CCOC(=O)C1=C(C)NC(C)=C(C(=O)OC)C1c1ccccc1C(F)(F)F (racemic) [Compound 68, 3-methyl-5-ethyl-2,6-dimethyl-4-(2-α,α,α-trifluoromethylphenyl)-1,4(R,S)-dihydropyridine-3,5-dicarboxylate]
14 | 6.71 ± 2.06 µM | CCOC(=O)C1=C(C)NC(C)=C(C(=O)OC)C1CCc1ccccc1 (stereo not shown) [Compound 74]
15 | 12.7 ± 3.8 µM | CCOC(=O)C1=C(C)NC(C)=C(C(=O)OC)C1c1ccc(OC)cc1 (racemic) [Compound 71, 3-methyl-5-ethyl-2,6-dimethyl-4-(4-methoxyphenyl)-1,4(R,S)-dihydropyridine-3,5-dicarboxylate]

Row | Compound | Ki
16 | CCOC(=O)C1=C(C)NC(C)=C(C(=O)OC)C1C (racemic) [Compound 52, 3-Methyl-5-ethyl 2,4,6-trimethyl-1,4(R,S)-dihydropyridine-3,5-dicarboxylate] | > 100 µM

same assay, conditions: Table 10; [3H]CGS 21680, rat striatal membranes; read-out: Ki rA2a

Row | Compound | Ki
17 | CCOC(=O)c1c(C)nc(-c2ccccc2)c(C(=O)OCC)c1C [Compound 81] | 28.4 µM

same assay, conditions: Table 11; 10^-4 M; read-out: % inhibition rA2A

Row | Compound | inhibition at 100 µM
18 | CCOC(=O)C1=C(C)NC(C)=C(C(=O)OCc2ccccc2)C1/C=C/c1ccccc1 (stereo not shown) [Compound 85] | 14.4 ± 4%
19 | CCOC(=O)C1=C(C)NC(c2ccc(Cl)cc2)=C(C(=O)OCC)C1/C=C/c1ccccc1 (stereo not shown) [Compound 90] | 12 ± 7%
20 | CCOC(=O)C1=C(C)NC(c2ccoc2)=C(C(=O)OCC)C1/C=C/c1ccccc1 (stereo not shown) [Compound 92] | 35 ± 6%
21 | CCOC(=O)C1=C(C)NC(c2ccccc2)=C(C(=O)OCC)C1/C=C/c1ccccc1OC (stereo not shown) [Compound 94] | 17 ± 12%

same assay, conditions: Table 11; 10^-4 M; read-out: displacement of specific binding rA2A

Row | Compound | inhibition at 100 µM
22 | CCOC(=O)C1=C(C)NC(c2ccsc2)=C(C(=O)OCC)C1/C=C/c1ccccc1 (stereo not shown) [Compound 93] | < 10%
23 | CCOC(=O)C1=C(C)NC(c2ccccc2)=C(C(=O)OCC)C1/C=C/c1ccccc1[N+](=O)[O-] (stereo not shown) [Compound 95] | < 10%
24 | CCOC(=O)C1=C(C)NC(c2ccc(OC)cc2)=C(C(=O)OCC)C1/C=C/c1ccccc1 (stereo not shown) [Compound 89] | < 10%

same assay, conditions: Table 11; [3H]CGS 21680, rat striatal membranes; read-out: Ki rA2A

Row | Compound | Ki
25 | CCOC(=O)c1c(C)nc(-c2ccccc2)c(C(=O)OCC)c1/C=C/c1ccccc1 [A] | 2.6 µM
26 | CCOC(=O)C1=C(C)NC(C)=C(C(=O)OCC)C1/C=C/c1ccccc1 [Compound 84] | 9.23 ± 3.6 µM
27 | CCOC(=O)C1=C(C)NC(c2ccccc2)=C(C(=O)OCc2ccccc2)C1C (stereo not shown) [Compound 87] | 3.15 µM
28 | CCOC(=O)C1=C(C)NC(c2ccccc2)=C(C(=O)OCC)C1C=C(c1ccccc1)c1ccccc1 (stereo not shown) [Compound 97] | 8 µM
29 | CCOC(=O)C1=C(C)NC(c2ccccc2)=C(C(=O)OCC)C1CC (stereo not shown) [Compound 86] | 14.5 µM

same assay, conditions: Table 12; 10^-4 M

Row | % inhibition rA2A | Compound
30 | 36% | 3,5-Diethyl 2,6-dimethyl-4-(2-thienyl)-1,4-(±)-dihydropyridine-3,5-dicarboxylate [Compound 114]

same assay, conditions: Table 12; 10^-4 M; read-out: % inhibition rA2A

Row | Compound | inhibition at 100 µM
31 | CCOC(=O)C1=C(C)NC(c2ccccc2)=C(C(=O)OCC[Si](C)(C)C)C1C#Cc1ccccc1 (racemic) [Compound 129, 3-Ethyl 5-(2-trimethylsilyl)-ethyl 2-methyl-4-phenylethynyl-6-phenyl-1,4-(±)-dihydropyridine-3,5-dicarboxylate] | 18 ± 5%
32 | CCNC(=O)C1=C(C)NC(c2ccccc2)=C(C(=O)OCC)C1C#Cc1ccccc1 (racemic) [Compound 134, 5-Ethoxycarbonyl-2-methyl-4-phenylethynyl-6-phenyl-1,4-(±)-dihydropyridine-3-carboxylic ethyl amide] | 19 ± 6%
33 | CCOC(=O)C1=C(C)NC(c2ccccc2)=C(C(=O)OCC)C1c1cccnc1 (racemic) [Compound 112, 3,5-Diethyl 2-methyl-4-(3-pyridyl)-6-phenyl-1,4-(±)-dihydropridine-3,5-dicarboxylate] | 40%
34 | CCOC(=O)C1=C(c2ccccc2)NC2=C(C(=O)CCC2)C1C#Cc1ccccc1 (racemic) [Compound 136, Ethyl 3-oxo-1,4,5,6,7,8-hexahydroquinoline-2-methyl-4-phenylethynyl-6-phenyl-1,4-±-dihydropyridin-5-carboxylate] | 22 ± 4%
35 | CCNC(=O)C1=C(c2ccccc2)N(COCC)C(C)=C(C(=O)OCC)C1C#Cc1ccccc1 (stereo not shown) [Compound 140] | 35%
36 | CCOC(=O)C1=C(C)NC(c2ccccc2)=C(C(=O)OCC)C1c1ccccn1 (racemic) [Compound 111, 3,5-Diethyl 2-methyl-4-(2-pyridyl)-6-phenyl-1,4-(±)-dihydropridine-3,5-dicarboxylate] | 25%
37 | CCOC(=O)C1=C(C)NC(c2ccccc2)=C(C(=O)SCC)C1C#Cc1ccccc1 (racemic) [Compound 130a, 3-Ethyl 5-thioethyl 2-methyl-4-phenylethynyl-6-phenyl-1,4(±)-dihydropyridine-3,5-dicarboxylate] | 17%
38 | CCOC(=O)C1=C(c2ccccc2)NC(C)=C(C(=O)OC[C@H](OC)c2ccccc2)C1C#Cc1ccccc1 (mixture of isomers) [Compound 128, 3-(2-Methoxy-2-phenyl)-ethyl 5-Ethyl 2-methyl-4-phenylethynyl-6-phenyl-1.4-(±)-dihydropyridine-3,5-dicarboxylate] | 33%
39 | CCNC(=O)C1=C(c2ccccc2)NC(C)=C(C(=O)OCC)C1C#Cc1ccccc1 (racemic) [Compound 132, 3-Ethoxycarbonyl-2-methyl-4-phenylethynyl-6-phenyl-1,4(±)-dihydropyridine-5-carboxylic ethyl amide] | 47%
40 | CCOC(=O)C1=C(C)NC(c2ccccc2)=C(C(=O)OCC)C1C#Cc1ccccc1 (stereo not shown) [Compound 109] | 25 ± 3%

same assay, conditions: Table 12; 10^-4 M; read-out: displacement of specific binding rA2A

Row | Compound | inhibition at 100 µM
41 | CCOC(=O)C1=C(C)NC(c2ccccc2)=C(C(=O)OCC)C1c1ccccc1 (racemic) [Compound 110, 3,5-Diethyl 2-methyl-4,6-diphenyl-1,4-(±)-dihydropyridine-3,5-dicarboxylate] | < 10%
42 | CCOC(=O)C1=C(C)NC(c2ccccc2)=C(C(=O)OCC)C1c1ccco1 (stereo not shown) [Compound 115] | < 10%
43 | CCOC(=O)C1=C(C)NC(c2ccccc2)=C(C(=O)OCC)C1c1cc2ccccc2o1 (racemic) [Compound 116, 3,5-Diethyl 2-methyl-4-(2-benzofuryl)-6-phenyl-1,4-(±)-dihydropridine-3,5-dicarboxylate] | < 10%

same assay, conditions: Table 12; [3H]CGS 21680, rat striatal membranes; read-out: Ki rA2A

Row | Compound | Ki
44 | CCOC(=O)C1=C(C)NC(c2ccccc2)=C(C(=O)OCC)C1c1ccncc1 (racemic) [Compound 113, 3.5-Diethyl 2-methyl-4-(4-pyridyl)-6-phenyl-1,4(±)-dihydropyridine-3.5-dicarboxylate] | 44.7 ± 3.7 µM
45 | CCOC(=O)C1=C(c2ccccc2)NC(C)=C(C(=O)SCC)C1C#Cc1ccccc1 (stereo not shown) [Compound 130b] | 5.15 ± 1.83 µM

same assay, conditions: Table 14; 10^-4 M; read-out: % inhibition rA2A

Row | Compound | inhibition at 100 µM
46 | CCOC(=O)C1=C(c2ccccc2)NC(C)=C(C(=O)OCC(O)CO)C1C#Cc1ccccc1 (stereo not shown) [Compound 213a] | 39 ± 8%

same assay, conditions: Table 14; 10^-4 M; read-out: displacement of specific binding rA2A

Row | Compound | inhibition at 100 µM
47 | CCOC(=O)C1=C(c2ccccc2)NC(C)=C(C(=O)OCC(O)CO)C1C#Cc1ccccc1 (stereo not shown) [Compound 212a] | < 10%

same assay, conditions: read-out: % inhibition rA2A

Row | Compound | inhibition at 100 µM
48 | CCOC(=O)C1=C(c2ccccc2)NC(C)=C(C(C)=O)C1C#Cc1ccccc1 (racemic) [Compound 135] | 17 ± 7%
49 | CCOC(=O)C1=C(C)NC(c2ccccc2)=C(C(=O)OCC)C1C#Cc1ccccc1 (racemic) [Compound 98] | 26%
